Results as given in patent US20250171516A1, “PEPTIDE ACIDS AS A GLP1R AGONIST AND ANTIBODY-DRUG CONJUGATES THEREOF” (Regeneron Pharmaceuticals, Inc., priority 2023, published 2025).
Where two headings read alike, the source gives them in different places. Starred links: 1 amine or outer side, 2 acyl side, 3 side chain; linkers in the order of their positions; H or OH if unused. Non-standard residues stand in square brackets, D forms with d. Residues, ends and D or L forms follow the SMILES beside them. ξ: configuration not given here. *: point of attachment. X3 = CCc1cc(OCCCCn2cc(COCCOCCOCCOCCOCCOCCOCCOCCOCCOCCOCCOCCN)nn2)ccc1-c1ccc(C[C@H](N[*:1])C(=O)[*:2])cc1; X1 = CCc1cc(OCCCCn2cc(COCCOCCOCCOCCOCCOCCOCCOCCN)nn2)ccc1-c1ccc(C[C@H](N[*:1])C(=O)[*:2])cc1; Bip(2'-Et,4'-O(CH2)4N3) = CCc1cc(OCCCCN=[N+]=[N-])ccc1-c1ccc(C[C@H](N)C(=O)O)cc1; Bip(2'-Et,4'-O(CH2)4NH2) = CCc1cc(OCCCCN)ccc1-c1ccc(C[C@H](N)C(=O)O)cc1; Malonyl(2,2-Me2,histaminyl) = CC(C)(C(=O)NCCc1cnc[nH]1)C(=O)*; Nva(5-(3,5-Me2Ph)) = Cc1cc(C)cc(CCC[C@H](N)C(=O)O)c1; Ala(1H-tetrazol-5-yl) = N[C@@H](Cc1nnn[nH]1)C(=O)O; αMePhe(2-F) = C[C@](N)(Cc1ccccc1F)C(=O)O; ξαMePhe(2-F) = CC(N)(Cc1ccccc1F)C(=O)O; tBu = CC(C)(C)*

Biological target: GLP-1R (Homo sapiens, UniProt P43220)
Sequence (P43220 24-463): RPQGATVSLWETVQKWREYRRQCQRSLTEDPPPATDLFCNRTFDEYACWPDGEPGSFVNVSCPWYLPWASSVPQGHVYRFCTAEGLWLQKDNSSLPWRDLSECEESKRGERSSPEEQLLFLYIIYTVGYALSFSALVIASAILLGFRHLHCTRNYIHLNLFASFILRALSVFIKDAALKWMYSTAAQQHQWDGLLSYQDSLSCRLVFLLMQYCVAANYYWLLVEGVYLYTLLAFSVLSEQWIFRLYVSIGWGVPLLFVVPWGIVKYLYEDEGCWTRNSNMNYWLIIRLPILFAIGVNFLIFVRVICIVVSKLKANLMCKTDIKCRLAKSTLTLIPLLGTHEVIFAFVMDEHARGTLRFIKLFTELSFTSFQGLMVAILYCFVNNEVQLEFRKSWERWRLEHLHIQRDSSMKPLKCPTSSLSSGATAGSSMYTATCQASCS
Experiment: GLP-1R cAMP assay of peptides (Tables 10, 14, 15)
Type: cell-based
[1] = Table 10, read-out: GLP-1R CAMP EC50
[2] = Table 14, peptide amides, read-out: cAMP EC50

GLP-1R CAMP Max (Table 10) [%]	EC50 [1] [nM]	EC50 [2] [nM]	Structure (SMILES)
104.11	59.6	–	CCc1cc(OCCCCn2cc(COCCOCCOCCOCCOCCOCCOCCOCCN)nn2)ccc1-c1ccc(C[C@H](NC(=O)[C@H](CC(=O)O)NC(=O)[C@H](CO)NC(=O)[C@@H](NC(=O)[C@](C)(Cc2ccccc2F)NC(=O)[C@@H](NC(=O)CNC(=O)[C@H](Cc2nnn[nH]2)NC(=O)C(C)(C)C(=O)NCCc2cnc[nH]2)[C@@H](C)O)[C@@H](C)O)C(N)=O)cc1 ({Malonyl(2,2-Me2,histaminyl)}-[Ala(1H-tetrazol-5-yl)]GT[αMePhe(2-F)]TSD[X1]-NH2)
–	–	1.89	CCc1cc(OCCCCn2cc(COCCOCCOCCOCCOCCOCCOCCOCCOCCOCCOCCOCCN)nn2)ccc1-c1ccc(C[C@H](NC(=O)[C@H](CC(=O)O)NC(=O)[C@H](CO)NC(=O)[C@@H](NC(=O)[C@](C)(Cc2ccccc2F)NC(=O)[C@@H](NC(=O)CNC(=O)[C@H](Cc2nn[nH]n2)NC(=O)C(C)(C)C(=O)NCCc2c[nH]cn2)[C@@H](C)O)[C@@H](C)O)C(=O)N[C@@H](CCCc2cc(C)cc(C)c2)C(N)=O)cc1 ({Malonyl(2,2-Me2,histaminyl)}-[Ala(1H-tetrazol-5-yl)]GT[αMePhe(2-F)]TSD[X3][Nva(5-(3,5-Me2Ph))]-NH2)
122.44	2.94	–	CCc1cc(OCCCCN=[N+]=[N-])ccc1-c1ccc(C[C@H](NC(=O)[C@H](CC(=O)O)NC(=O)[C@H](COC(C)(C)C)NC(=O)[C@@H](NC(=O)C(C)(Cc2ccccc2F)NC(=O)[C@@H](NC(=O)CNC(=O)[C@H](Cc2nnn[nH]2)NC(=O)C(C)(C)C(=O)NCCc2cnc[nH]2)[C@@H](C)O)[C@@H](C)O)C(=O)N[C@@H](CCCc2cc(C)cc(C)c2)C(=O)O)cc1 (stereo partly drawn) ({Malonyl(2,2-Me2,histaminyl)}-[Ala(1H-tetrazol-5-yl)]GT[ξαMePhe(2-F)]TS(tBu)D[Bip(2'-Et,4'-O(CH2)4N3)][Nva(5-(3,5-Me2Ph))]-OH)
97.92	51.2	–	CCc1cc(OCCCCN=[N+]=[N-])ccc1-c1ccc(C[C@H](NC(=O)[C@H](CC(=O)O)NC(=O)[C@H](CO)NC(=O)[C@@H](NC(=O)C(C)(Cc2ccccc2F)NC(=O)[C@@H](NC(=O)CNC(=O)[C@H](Cc2nnn[nH]2)NC(=O)C(C)(C)C(=O)NCCc2cnc[nH]2)[C@@H](C)O)[C@@H](C)O)C(=O)O)cc1 (stereo partly drawn) [AA10-AA9-AA8-AA7-AA6-AA5-AA4-AA3-AA2-OH]
−0.25	> 1000	–	C[C@@H](O)[C@H](NC(=O)CNC(=O)[C@H](Cc1nn[nH]n1)NC(=O)C(C)(C)C(=O)NCCc1cnc[nH]1)C(=O)N[C@@](C)(Cc1ccccc1F)C(=O)N[C@H](C(=O)N[C@@H](CO)C(=O)N[C@@H](CC(=O)O)C(=O)O)[C@@H](C)O [AA10-AA9-AA8-AA7-AA6-AA5-AA4-AA3-OH]
−0.86	> 1000	–	C[C@@H](O)[C@H](NC(=O)CNC(=O)[C@H](Cc1nn[nH]n1)NC(=O)C(C)(C)C(=O)NCCc1cnc[nH]1)C(=O)N[C@@](C)(Cc1ccccc1F)C(=O)N[C@H](C(=O)N[C@@H](CO)C(=O)O)[C@@H](C)O [AA10-AA9-AA8-AA7-AA6-AA5-AA4-OH] ({Malonyl(2,2-Me2,histaminyl)}-[Ala(1H-tetrazol-5-yl)]GT[αMePhe(2-F)]TS-OH)
−1.23	> 1000	–	C[C@@H](O)[C@H](NC(=O)[C@](C)(Cc1ccccc1F)NC(=O)[C@@H](NC(=O)CNC(=O)[C@H](Cc1nn[nH]n1)NC(=O)C(C)(C)C(=O)NCCc1cnc[nH]1)[C@@H](C)O)C(=O)O [AA10-AA9-AA8-AA7-AA6-AA5-OH] ({Malonyl(2,2-Me2,histaminyl)}-[Ala(1H-tetrazol-5-yl)]GT[αMePhe(2-F)]T-OH)
−1.13	> 1000	–	C[C@@H](O)[C@H](NC(=O)CNC(=O)[C@H](Cc1nn[nH]n1)NC(=O)C(C)(C)C(=O)NCCc1cnc[nH]1)C(=O)N[C@@](C)(Cc1ccccc1F)C(=O)O [AA10-AA9-AA8-AA7-AA6-OH] ({Malonyl(2,2-Me2,histaminyl)}-[Ala(1H-tetrazol-5-yl)]GT[αMePhe(2-F)]-OH)
−1.39	> 1000	–	CC(C)(C(=O)NCCc1cnc[nH]1)C(=O)N[C@@H](Cc1nn[nH]n1)C(=O)NCC(=O)O [AA10-AA9-AA8-OH]
–	–	0.359	CCc1cc(OCCCCN=[N+]=[N-])ccc1-c1ccc(C[C@H](NC(=O)[C@H](CC(=O)O)NC(=O)[C@H](CO)NC(=O)[C@@H](NC(=O)[C@](C)(Cc2ccccc2F)NC(=O)[C@@H](NC(=O)CNC(=O)[C@H](Cc2nn[nH]n2)NC(=O)C(C)(C)C(=O)NCCc2cnc[nH]2)[C@@H](C)O)[C@@H](C)O)C(=O)N[C@@H](CCCc2cc(C)cc(C)c2)C(N)=O)cc1 [M2361] ({Malonyl(2,2-Me2,histaminyl)}-[Ala(1H-tetrazol-5-yl)]GT[αMePhe(2-F)]TSD[Bip(2'-Et,4'-O(CH2)4N3)][Nva(5-(3,5-Me2Ph))]-NH2)
–	–	280	CCc1cc(OCCCCN=[N+]=[N-])ccc1-c1ccc(C[C@H](NC(=O)[C@H](CC(=O)O)NC(=O)[C@H](CO)NC(=O)[C@@H](NC(=O)[C@](C)(Cc2ccccc2F)NC(=O)[C@@H](NC(=O)CNC(=O)[C@@H](N)Cc2nn[nH]n2)[C@@H](C)O)[C@@H](C)O)C(=O)N[C@@H](CCCc2cc(C)cc(C)c2)C(N)=O)cc1 [M2383] (H-[Ala(1H-tetrazol-5-yl)]GT[αMePhe(2-F)]TSD[Bip(2'-Et,4'-O(CH2)4N3)][Nva(5-(3,5-Me2Ph))]-NH2)
–	–	0.0502	CCc1cc(OCCCCN)ccc1-c1ccc(C[C@H](NC(=O)[C@H](CC(=O)O)NC(=O)[C@H](CO)NC(=O)[C@@H](NC(=O)[C@](C)(Cc2ccccc2F)NC(=O)[C@@H](NC(=O)CNC(=O)[C@H](Cc2nnn[nH]2)NC(=O)C(C)(C)C(=O)NCCc2cnc[nH]2)[C@@H](C)O)[C@@H](C)O)C(=O)N[C@@H](CCCc2cc(C)cc(C)c2)C(N)=O)cc1 [M2642] ({Malonyl(2,2-Me2,histaminyl)}-[Ala(1H-tetrazol-5-yl)]GT[αMePhe(2-F)]TSD[Bip(2'-Et,4'-O(CH2)4NH2)][Nva(5-(3,5-Me2Ph))]-NH2)
–	–	351	CCc1cc(OCCCCn2cc(COCCOCCOCCOCCOCCOCCOCCOCCN)nn2)ccc1-c1ccc(C[C@H](NC(=O)[C@H](CC(=O)O)NC(=O)[C@H](CO)NC(=O)[C@@H](NC(=O)[C@](C)(Cc2ccccc2F)NC(=O)[C@@H](NC(=O)CNC(=O)[C@@H](N)Cc2nnn[nH]2)[C@@H](C)O)[C@@H](C)O)C(=O)N[C@@H](CCCc2cc(C)cc(C)c2)C(N)=O)cc1 [M6295] (H-[Ala(1H-tetrazol-5-yl)]GT[αMePhe(2-F)]TSD[X1][Nva(5-(3,5-Me2Ph))]-NH2)

Structure (SMILES)	GLP-1R CAMP Max (Table 10) [%]	EC50 [1] [nM]	EC50 [2] [nM]
C[C@@H](O)[C@H](NC(=O)CNC(=O)[C@H](Cc1nn[nH]n1)NC(=O)C(C)(C)C(=O)NCCc1cnc[nH]1)C(=O)O [AA10-AA9-AA8-AA7-OH]	−0.52	> 1000	–
CCc1cc(OCCCCN=[N+]=[N-])ccc1-c1ccc(C[C@H](NC(=O)[C@H](CC(=O)O)NC(=O)[C@H](CO)NC(=O)[C@@H](NC(=O)[C@](C)(Cc2ccccc2F)NC(=O)[C@@H](NC(=O)CNC(=O)[C@H](Cc2nnn[nH]2)NC(=O)C(C)(C)C(=O)NCCc2cnc[nH]2)[C@@H](C)O)[C@@H](C)O)C(=O)N[C@@H](CCCc2cc(C)cc(C)c2)C(N)=O)cc1 [M2361] ({Malonyl(2,2-Me2,histaminyl)}-[Ala(1H-tetrazol-5-yl)]GT[αMePhe(2-F)]TSD[Bip(2'-Et,4'-O(CH2)4N3)][Nva(5-(3,5-Me2Ph))]-NH2)	–	–	0.497
